pIC50: −log10 of the molar value. Structures can show the parent of a compound that is named as a salt. Where two headings read alike, the source gives them in different places.
How the values were obtained:
[1] = tested on: uptake of the neurotransmitter gamma-amino-butyric acid (GABA) into slices of rat hippocampal (brain) tissue; assay: Uptake of 3H-GABA into slices (prisms) of rat hippocampus in vitro; assay type: biochemical, Male Long Evans rats; conditions: 3H-GABA 0.05 μM; 10 mg tissue, 15 min with test compound at 37° C., 2 min uptake; read-out: IC50 (Calculated Median (50%) Inhibitory Concentration)
Procedure: The compounds of formula I are tested for pharmacological activity using three procedures. The first is an assay for the uptake of the neurotransmitter gamma-amino-butyric acid (GABA) into slices of rat hippocampal (brain) tissue incubated in vitro analogous to those described by Johnston, GAR, et al, in J. Neurochem. 26:1029-1032 (1976) entitled "Inhibition of the Uptake of GABA and Related Amino Acids in Rat Brain Slices by the Optical Isomers of Nipecotic Acid." Methods for this test are described in the following paragraph.
Male Long Evans rats (200-300 g) were sacrificed by decapitation, the brains quickly removed and the hippocampi were dissected out. Slices were cut (0.1×0.1 mm) on a McIlwain tissue chopper and dispersed in ice-chilled Krebs Ringer HEPES-buffered medium. Normal medium was composed of: NaCl (119 mM), KCl (4.75 mM), CaCl2 (1.25 mM), KH2 PO4 (1.20 mM), MgSO4 (1.18 mM), HEPES (22 mM), EDTA (0.03 mM), ascorbate (0.6 mM), and glucose (10 mM). The pH was adjusted to 7.2 with 3.0M Tris HCl. Following two washes in normal medium, 10 mg of tissue was incubated in a 3 ml volume of medium at 37° C. for 15 min in the presence or absence of test compound. ^3 H-GABA (80.8 Ci/mmole; 0.05 μM final concentration) was added to each flask and the uptake was allowed to proceed for a two min period. At the end of the uptake period, samples were rapidly filtered through Whatman GF/F filters and washed once with 5 ml ice-chilled 0.9% sodium chloride. The filters with tissue were placed into scintillation vials with 2 ml H2 O and allowed to sit for at least 60 min before scintillation fluid was added and samples counted. Blanks were treated in a manner similar to other samples, but were left on ice throughout the experiment. Results are expressed as percent control (no drug present) or IC50 value.
Table I. GABA uptake into prisms of rat hippocampus in vitro in the presence of different concentrations of various synthetic compounds of formula I.

[2] = tested on: tonic hindlimb extensor seizures; assay: Threshold Maximal Electroshock (animal model for generalized seizures); assay type: in vivo, Male CF-1 mice; conditions: Mus musculus, ip, 0.5 h
Procedure: Male CF-1 mice (22-30 grams) are allowed free access to food and water prior to testing. For screening, groups of five mice are given a compound intraperitoneally at doses of 30, 100, and 300 mg/kg and tested at 0.5, 2.0, and 4.0 hr after dosing. Drugs are either dissolved in 0.9% saline or suspended in 0.2% methylcellulose. Animals are shocked with corneal electrodes (see below) and observed for tonic hindlimb extensor seizures. Absence of hindlimb extension is taken as an anticonvulsant effect.
The electroshock apparatus delivers a 60 Hz sine wave with a current amplitude of 14 mA (peak-to-peak) for 0.2 seconds. The current strength of 14 mA used in this procedure produces tonic extensor seizures in approximately 95% of untreated mice, but is only slightly above threshold for tonic extension.

[3] = tested on: threshold clonic seizures in mice caused by subcutaneous administration of pentylenetetrazol; assay: Attenuation of threshold clonic seizures in mice caused by subcutaneous pentylenetetrazol (model for absence type seizures); assay type: in vivo; conditions: Mus musculus, pentylenetetrazol 85 mg/kg s.c., read-out: Calculated Median Effective Dose (ED50)
Procedure: A third pharmacological test was performed as described in R. L. Krall et al, Epilepsia, 19:409 (1978), which is incorporated herein by reference. In this procedure, drugs were tested for attenuation of threshold clonic seizures in mice caused by subcutaneous administration of pentylenetetrazol (85 mg/kg) which is a generally accepted model for absence type seizures. Results from the third test for the compound when administered either intraperitoneally (IP) or orally (PO) are shown below in Table III.

[4] = read-out: Number of Animals Protected from Seizures (n/5)
[5] = 30 mg/kg, intraperitoneal, 30 minutes after administration, read-out: Number of Animals Protected from Seizures (n/5)
[6] = 2 h, PO, tested 120 min following dosing

Row | SMILES | pIC50 [1] | responders at 30 mg/kg [2, 4] | responders at 100 mg/kg [2, 4] | responders at 30 mg/kg [2, 5] | responders at 100 mg/kg ([2]; 100 mg/kg, intraperitoneal, 30 minutes after administration, read-out: Number of Animals Protected from Seizures (n/5) (converted)) | ED50 ([3]; 0.5 h, IP, tested 30 min following dosing) | ED50 [3, 6]
1 | CCOC(=O)C1CCCN(CCOC(c2ccc(Cl)cc2)c2ccc(Cl)cc2)C1 (centres unmarked) [Example I, 3-Piperidinecarboxylic acid 1-[2-[bis-(4-chlorophenyl)methoxy]ethyl]-, ethyl ester] | 4.92 | 0% | 60% | – | – | – | –
2 | O=C(O)C1CCCN(CCOC(c2ccccc2)c2ccc(Cl)c(Cl)c2)C1 (centres unmarked) [Example IX, 3-Piperidinecarboxylic acid, 1-[2-[(3,4-dichlorophenyl)phenylmethoxy]ethyl]-, monohydrochloride] | – | 60% | 80% | – | – | – | –
3 | CCOC(=O)C1CCCN(CCOC(c2ccccc2)c2ccccc2)C1 (centres unmarked) [II, 3-Piperidinecarboxylic acid, 1-[2-(diphenylmethoxy)ethyl]-, ethyl ester] | ~4.46 | 20% | 80% | – | – | – | –
4 | CCOC(=O)C1CCCN(CCCOC(c2ccccc2)c2ccccc2)C1 (centres unmarked) [III, 3-Piperidinecarboxylic acid, 1-[3-(diphenylmethoxy)propyl]-, ethyl ester, monohydrochloride] | – | – | – | 0% | – | – | –
5 | CCOC(=O)C1CCCN(CCSC(c2ccccc2)c2ccccc2)C1 (centres unmarked) [IV, 3-Piperidinecarboxylic acid, 1-[2-[(diphenylmethyl)thio]ethyl]-, ethyl ester] | ~4.22 | – | – | – | – | – | –
6 | O=C(O)C1CCCN(CCCOC(c2ccccc2)c2ccccc2)C1 (centres unmarked) [VI, 3-Piperidinecarboxylic acid, 1-[3-diphenylmethoxy)propyl]-, monohydrochloride] | 4.96 | – | – | 0% | 20% | – | –
7 | Cl.O=C(O)C1CCCN(CCOC(c2ccccc2)c2ccccc2)C1 (centres unmarked) [VII, 3-Piperidinecarboxylic acid, 1-[2-(diphenylmethoxy)ethyl]-, monohydrochloride] | 5.52 | 25% | 50% | – | – | 1.9 mg/kg | –
8 | O=C(O)C1CCCN(CCOC(c2ccc(Cl)cc2)c2ccc(Cl)cc2)C1 (centres unmarked) [VIII, 3-piperidinecarboxylic acid, 1-[2-[bis(4-chlorophenyl)methoxy]ethyl]monohydrochloride] | 6.54 | 80% | 80% | – | – | – | 0.54 mg/kg
9 | O=C(O)C1CCCN(CCOC(c2ccccc2)c2ccc(Cl)c(C(F)(F)F)c2)C1 (centres unmarked) [X, 3-Piperidinecarboxylic acid, 1-[2-[[4-chloro-3-(trifluoromethyl)phenyl]phenylmethoxy]ethyl]monohydrochloride] | 6.07 | 20% | 100% | – | – | – | –
10 | O=C(O)C1CCCN(CCOC2c3ccccc3C=Cc3ccccc32)C1 (centres unmarked) [XI, 3-Piperidinecarboxylic acid, 1-[2-[(5H-dibenzo[a,d]cyclohepten-5-yloxy)ethyl]]-] | – | 20% | 40% | – | – | – | –
11 | O=C(O)C1CCCN(CCOC(c2ccc(F)cc2)c2ccc(F)cc2)C1 (centres unmarked) [XIII, 3-Piperidinecarboxylic acid, 1-[2-[bis (4-fluorophenyl)methoxy]ethyl]-, monohydrochloride] | – | 40% | 40% | – | – | – | –
12 | O=C(O)C1=CCCN(CCOC(c2ccc(Cl)cc2)c2ccc(Cl)cc2)C1 [XIX, 3-Pyridinecarboxylic acid, 1-[2-[bis(4-chlorophenyl)methoxy]ethyl]-1,2,5,6-tetrahydro, hydrochloride] | 7.00 | 80% | 100% | – | – | – | –
13 | Cl.O=C(O)C1=CCCN(CCOC(c2ccc(C(F)(F)F)cc2)c2ccc(C(F)(F)F)cc2)C1 [XVII, 3-Pyridinecarboxylic acid, 1-[2-[bis[4-(trifluoromethyl)phenyl]methoxy]ethyl]-1,2,5,6-tetrahydro-, monohydrochloride] | 6.35 | 80% | 80% | – | – | – | 0.5 mg/kg
14 | O=C(O)C1CCCN(CCOC(c2ccc(C(F)(F)F)cc2)c2ccc(C(F)(F)F)cc2)C1 (centres unmarked) [XVIII, 3-Piperidinecarboxylic acid, 1-[2-[bis[4-(trifluoromethyl)phenyl]methoxy]ethyl]-, hydrochloride] | 6.15 | 100% | 100% | – | – | – | –
